Reference: the supplement of paper PMC10307832

Tests used:
Assay in all cases: relative viability (nuclei count vs DMSO), 5 days (fraction); higher = more cells survive
Tanzisertib + Bortezomib = compound: O[C@H]1CC[C@H](Nc2ncc3nc(Nc4c(F)cc(F)cc4F)n([C@H]4CCOC4)c3n2)CC1 [Tanzisertib] + CC(C)C[C@H](NC(=O)[C@H](Cc1ccccc1)NC(=O)c1cnccn1)B(O)O [Bortezomib] (partner 0.002 µM)
Method in brief: (§1)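 Relative viability divides the nuclei count in treated wells by that in vehicle wells. Lung cancer cell lines were seeded in 1536-well plates, dosed by pin tool the next day, and fixed and stained after 5 days in one step with final 0.05% Triton X-100, 1% formaldehyde and 1 ug/ml Hoechst. Dosing was a single drug or a fixed anchor-drug dose plus five library-drug doses (not always all listed) in √10 steps, and values are medians of duplicate plates imaged at 4×.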

[1] = compound: C1CNCCC1C2=CC(=NN2)C3=CC=NC=C3 + Nc1ncn([C@H]2C[C@H](O)[C@@H](CO)O2)c(=O)n1 [Decitabine] (partner 2 µM)
Method in brief: as §1

[2] = compound: C1CNCCC1C2=CC(=NN2)C3=CC=NC=C3 + C[C@@H](Oc1cc(-c2cnn(C3CCNCC3)c2)cnc1N)c1c(Cl)ccc(F)c1Cl [Crizotinib] (partner 1 µM)
Method in brief: as §1

[3] = compound: C1CNCCC1C2=CC(=NN2)C3=CC=NC=C3 + C[C@]1(O)C[C@@H](c2nc(-c3ccc4ccc(-c5ccccc5)nc4c3)c3c(N)nccn32)C1 [Linsitinib] (partner 1 µM)
Method in brief: as §1

Cell Line | relative viability (Tanzisertib + Bortezomib; first compound 0.08 µM) | relative viability (Tanzisertib + Bortezomib; first compound 0.253 µM) | relative viability (Tanzisertib + Bortezomib; first compound 0.8 µM) | relative viability (Tanzisertib + Bortezomib; first compound 2.53 µM) | relative viability (Tanzisertib + Bortezomib; first compound 8 µM) | relative viability ([1]; first compound 0.08 µM) | relative viability ([1]; first compound 0.8 µM) | relative viability ([1]; first compound 2.53 µM) | relative viability ([1]; first compound 8 µM) | relative viability ([2]; first compound 0.08 µM) | relative viability ([2]; first compound 0.8 µM) | relative viability ([2]; first compound 2.53 µM) | relative viability ([2]; first compound 8 µM) | relative viability ([3]; first compound 0.08 µM) | relative viability ([3]; first compound 0.8 µM) | relative viability ([3]; first compound 2.53 µM) | relative viability ([3]; first compound 8 µM)
LCLC-97TM1 | 1.13 | 1.24 | 0.784 | 0.957 | 0.518 | 0.232 | 0.283 | 0.214 | 0.262 | 0.348 | 0.429 | 0.408 | 0.406 | 0.142 | 0.183 | 0.201 | 0.211
LCLC-103H | 1.15 | 1.06 | 1.04 | 1.18 | 1.16 | 0.767 | 0.735 | 0.755 | 0.642 | 1.11 | 1.04 | 1.07 | 0.935 | 1.07 | 0.846 | 1.1 | 0.951
LOU-NH91 | 0.49 | 0.516 | 0.493 | 0.502 | 0.543 | 0.84 | 0.851 | 0.832 | 0.79 | 0.718 | 0.733 | 0.78 | 0.742 | 0.85 | 1 | 1.14 | 0.962
LU99A | 1.29 | 1.07 | 1.08 | 1.19 | 1.31 | 0.857 | 0.982 | 0.919 | 0.842 | 0.5 | 0.586 | 0.596 | 0.558 | 0.53 | 0.579 | 0.551 | 0.513
LXF-289 | 1.1 | 1.03 | 1.03 | 0.977 | 1.04 | 0.349 | 0.35 | 0.395 | 0.371 | 0.842 | 0.88 | 0.801 | 0.837 | 0.963 | 1.04 | 0.981 | 0.9
NCI-H23 | 1.18 | 0.979 | 0.875 | 1.11 | 1.17 | 0.306 |  | 0.301 | 0.377 | 0.431 | 0.499 | 0.499 | 0.518 | 0.5 | 0.642 | 0.675 | 0.644
NCI-H322M | 1.25 | 1.21 | 1.32 | 1.14 | 1.18 | 0.67 | 0.645 | 0.736 | 0.872 | 0.851 | 0.875 | 0.878 | 0.955 | 0.874 | 0.71 | 0.899 | 0.888
NCI-H441 | 0.53 | 0.409 | 0.407 | 0.815 | 0.471 | 0.226 | 0.255 | 0.243 | 0.248 | 0.709 | 0.713 | 0.853 | 0.862 | 0.65 | 0.361 | 0.753 | 0.497
NCI-H460 | 1.21 | 1.2 | 1.12 | 1.07 | 0.965 | 0.379 | 0.608 | 0.554 | 0.474 | 0.369 | 1.02 | 1.02 | 0.996 | 0.421 | 1.22 | 0.818 | 0.849
NCI-H520 | 0.945 | 0.739 | 0.606 | 0.51 | 0.446 | 0.445 | 0.519 | 0.518 | 0.498 | 0.742 | 0.921 | 0.727 | 0.736 | 0.883 | 1.04 | 0.867 | 0.912
NCI-H596 | 1.1 | 0.99 | 1.2 | 0.907 | 1.1 | 1.03 | 1.25 | 0.922 | 1.21 | 0.984 | 1.15 | 1.04 | 0.991 | 0.894 | 1.12 | 1.03 | 1.03
NCI-H647 | 1.03 | 1.01 | 1 | 1.14 | 1.02 | 0.296 | 0.378 | 0.338 | 0.392 | 1.05 | 1.08 | 1.01 | 1.06 | 1.28 | 1.45 | 1.38 | 1.09
NCI-H650 | 0.868 | 1 | 0.87 | 0.945 | 0.366 | 0.284 | 0.322 | 0.341 | 0.303 | 0.681 | 0.802 | 0.929 | 0.489 | 0.751 | 0.727 | 1.06 | 0.75
NCI-H661 | 0.859 | 0.64 | 0.874 | 0.567 | 0.795 | 0.549 | 0.57 | 0.541 | 0.541 | 1.15 | 0.96 | 1.05 | 0.902 | 0.534 | 0.524 | 0.528 | 0.584
NCI-H727 | 1 | 0.762 | 1.04 | 0.806 | 0.64 | 0.872 | 0.865 | 0.871 | 0.952 | 0.718 | 1.1 | 1.05 | 0.776 | 0.362 | 0.338 | 0.294 | 0.21
NCI-H838 | 1.24 | 0.971 | 0.807 | 0.778 | 0.643 | 0.431 | 0.441 | 0.46 | 0.451 | 0.844 | 0.924 | 0.954 | 0.796 | 0.969 | 1.05 | 1.07 | 0.983

Cell Line | relative viability (Tanzisertib + Bortezomib; first compound 0.08 µM) | relative viability (Tanzisertib + Bortezomib; first compound 0.253 µM) | relative viability (Tanzisertib + Bortezomib; first compound 0.8 µM) | relative viability (Tanzisertib + Bortezomib; first compound 2.53 µM) | relative viability (Tanzisertib + Bortezomib; first compound 8 µM) | relative viability ([1]; first compound 0.08 µM) | relative viability ([1]; first compound 0.8 µM) | relative viability ([1]; first compound 2.53 µM) | relative viability ([1]; first compound 8 µM) | relative viability ([2]; first compound 0.08 µM) | relative viability ([2]; first compound 0.8 µM) | relative viability ([2]; first compound 2.53 µM) | relative viability ([2]; first compound 8 µM) | relative viability ([3]; first compound 0.08 µM) | relative viability ([3]; first compound 0.8 µM) | relative viability ([3]; first compound 2.53 µM) | relative viability ([3]; first compound 8 µM)
NCI-H1355 | 1.1 | 1.34 | 1.23 | 1.23 | 1.34 | 0.374 | 0.36 | 0.395 | 0.354 | 1.02 | 1.03 | 1.12 | 1.13 | 0.868 | 0.71 | 0.891 | 0.797
NCI-H1437 | 0.663 | 0.648 | 0.479 | 0.531 | 0.393 | 0.574 | 0.573 | 0.624 | 0.602 | 0.866 | 0.967 | 0.929 | 0.883 | 0.986 | 1.03 | 1.16 | 1.05
NCI-H1651 | 0.897 | 0.917 | 0.925 | 0.875 | 0.853 | 0.586 | 0.566 | 0.686 | 0.501 | 0.825 | 0.832 | 0.872 | 0.854 | 0.923 | 0.977 | 0.966 | 1.14
NCI-H1666 | 0.75 | 0.732 | 1.03 | 0.872 | 0.909 | 0.697 | 0.747 | 0.762 | 0.728 | 0.762 | 0.935 | 0.989 | 0.902 | 0.758 | 0.748 | 0.862 | 0.814
NCI-H1734 | 1.04 | 0.936 | 0.856 | 1.02 | 0.881 | 0.452 | 0.524 | 0.488 | 0.497 | 0.663 | 0.687 | 0.653 | 0.654 | 0.845 | 0.885 | 0.908 | 0.811
NCI-H1755 | 1.03 | 0.995 | 0.986 | 0.957 | 0.942 | 0.712 | 0.717 | 0.692 | 0.641 | 0.967 | 0.836 | 0.887 | 0.776 | 1.01 | 0.966 | 0.969 | 0.916
NCI-H1792 | 0.98 | 1.08 | 0.937 | 0.882 | 0.982 | 0.553 | 0.398 | 0.551 | 0.514 | 0.987 | 0.983 | 1.06 | 0.959 | 0.521 | 0.514 | 0.566 | 0.534
NCI-H1915 | 0.992 | 1.07 | 1 | 0.978 | 0.989 | 0.267 | 0.249 | 0.26 | 0.263 | 0.88 | 0.906 | 0.855 | 0.909 | 1.05 | 1.14 | 1.1 | 1.11
NCI-H1975 | 0.428 | 0.467 | 0.371 | 0.401 | 0.347 | 0.369 | 0.355 | 0.399 | 0.363 | 0.988 | 1.05 | 0.963 | 0.889 | 0.952 | 1.14 | 0.917 | 0.97
NCI-H1993 | 1.14 | 1.07 | 1.12 | 1.04 | 0.857 | 0.573 | 0.576 | 0.473 | 0.7 | 0.867 | 0.876 | 0.767 | 0.896 | 0.748 | 0.67 | 0.732 | 0.798
NCI-H2009 | 1.34 | 1 | 1.01 | 1.13 | 0.968 | 0.374 | 0.4 | 0.343 | 0.37 | 0.96 | 1.08 | 1.08 | 1.03 | 1.2 | 1.18 | 1.25 | 1.22
NCI-H2023 | 1.18 | 1 | 1.06 | 0.855 | 0.371 | 0.219 | 0.222 | 0.251 | 0.194 | 0.427 | 0.688 | 0.738 | 0.709 | 0.62 | 0.671 | 0.629 | 0.647
NCI-H2085 | 1.11 | 1.08 | 0.992 | 1.07 | 1.09 | 0.526 |  | 0.578 | 0.531 | 0.976 | 0.938 | 0.973 | 0.825 | 0.975 | 0.732 | 1.1 | 0.95
NCI-H2087 | 0.985 | 0.931 | 0.835 | 0.9 | 0.857 | 0.339 | 0.279 | 0.267 | 0.292 | 0.837 | 1.02 | 0.976 | 0.666 | 1.04 | 1.09 | 0.973 | 0.96
NCI-H2126 | 1.11 | 1.18 | 1.09 | 1.11 | 1.2 | 0.613 | 0.654 | 0.667 | 0.578 | 0.952 | 1.05 | 1.01 | 0.979 | 0.718 | 0.636 | 0.789 | 0.748
